Earlier results as cited in publication PMC2981068 (Journal of medicinal chemistry, 2010).
Marks after values point to notes of the source that are not given here.

Tests used:
[1] = tested on: E. faecalis (VanA, strain BM4166), vancomycin- and teicoplanin-resistant; conditions: footnotes d, ref [7]–[8], [4]
[2] = tested on: E. faecalis (VanB, strain ATCC 51299), vancomycin-resistant and teicoplanin-sensitive; conditions: footnotes d, ref [7]–[8], [4]
[3] = computationally determined, relative to 2 with ligand 3; ref [11]
[4] = tested on: Enterocococci bacterial strains (VanA and VanB); conditions: resistant vs sensitive bacteria; ref [1d]
[5] = tested on: Staphylococcus aureus (strain ATCC 25923), vancomycin-sensitive; conditions: reference not given, ref [1a],[6] as in b5

Substance	MIC E. faecalis (VanA) (value in parentheses) [1]	MIC E. faecalis (VanB) (value in parentheses) [2] [µg/mL]	ΔΔGb cal, ligand 3 [3]	drop in antimicrobial activity on D-Ala to D-Lac change [4] [fold]	MIC for sensitive strain (comparator in text) [5] [µg/mL]
vancomycin aglycon [Compound 2]	640 (640) ^d, ^e μg/mL	80	0.0 (0.0) ^d kcal/mol		
Vancomycin [Compound 1]	2000 (2000) ^e μg/mL	125		1000	
chlorobiphenyl vancomycin [Compound 8]					0.03
